Experiments:
Format in all cases: in vivo, rat (male S.D.)
[1] = test system: Triton-induced hyperlipidemic rats; assay: Antihyperlipidemic activity in Triton-induced hyperlipidemic rats, method A (24 hours) (Test 2)
Protocol: (§1) Cholesterol in serum was measured by means of a cholesterol measuring kit (Cholesterol C-Test Wako, manufactured by Wako Junyaku Co., Ltd.), and cholesterol in HDL was measured by means of NC Hi-Set, manufactured by Nippon Chemiphar Co., Ltd. The quantitative analysis of triglyceride was conducted by means of a triglyceride measuring kit (Triglyceride C-II-Test Wako, manufactured by Wako Junyaku Co., Ltd.). Further, the change rate in the following Tables, was calculated by the following equation. Change rate(%)=(A-B/A)×100 where A is the amount of serum lipids (mg/dl) of the control group, and B is the amount of serum lipids (mg/dl) of the group to which the therapeutic agent was administered. The antihyperlipidemic activity in Triton-induced hyperlipidemic rats Male S.D. rats weighing 230-250 g (7 weeks old) were divided into groups of 5 rats each and injected with a physiological saline solution of Triton Wr-1339 in a dose of 250 mg/kg (5 ml/kg) i.v. through the tail vein. […] The test compounds suspended in 0.5% CMC-Na were given to the rats in an amount of 2 ml/kg via stomach tube 1 hour before and 5 hours after (in the case of method A) or 1 hour before and 23 hours after (in the case of method B) the injection of Triton solution. Control rats received the same volume of the vehicle. The animals were fasted during the experimental period. The total cholesterol and triglyceride in the serum were measured.

[2] = test system: Triton-induced hyperlipidemic rats; assay: Antihyperlipidemic activity in Triton-induced hyperlipidemic rats, method B (43 hours) (Test 2)
Protocol: as §1

normal rats = assay: Activities against serum lipid, degree of hepatomegaly and GOT/GPT in normal rats (Test 5); settings: 300 mg/kg/day, seven days
Protocol: It is administered from once to three times per day. The dose may of course be varied depending upon the age, the weight or the condition of illness of the patient. […] In the following tests, the fractionation of lipoproteins was conducted by a dextran sulfate-MgCl2 precipitation method.
Cholesterol in serum was measured by means of a cholesterol measuring kit (Cholesterol C-Test Wako, manufactured by Wako Junyaku Co., Ltd.), and cholesterol in HDL was measured by means of NC Hi-Set, manufactured by Nippon Chemiphar Co., Ltd. The quantitative analysis of triglyceride was conducted by means of a triglyceride measuring kit (Triglyceride C-II-Test Wako, manufactured by Wako Junyaku Co., Ltd.).
Further, the change rate in the following Tables, was calculated by the following equation.
Change rate(%)=(A-B/A)×100
where A is the amount of serum lipids (mg/dl) of the control group, and B is the amount of serum lipids (mg/dl) of the group to which the therapeutic agent was administered.
(§2) The activities against serum lipid, the degree of hepatomegaly and the hepatic drug metabolizing systems of normal rats
(§3) Male S.D. rats (6 weeks old) were divided into groups of 5 rats each. The test compounds suspended in 5% gum arabic were given to the rats once a day for seven days in a daily dose of 300 mg/kg. Then, the rats were fasted for one day, blood samples were taken, and the total cholesterol, triglyceride, HDL-cholesterol in the serum were quantitatively analyzed. Further, the liver weight was measured, and the degree of hepatomegaly was determined by comparing the weight ratio per 100 g of the body weight with that of the control group. Furthermore, GOT and GPT values were measured, and the activities of cytochrome P-450 and glutathione related enzymes were also measured. These values were compared with those of the control groups to investigate any abnormality.

[3] = test system: glutathione related enzymes; assay: Effect on glutathione related enzymes of normal rats (Test 5); settings: 300 mg/kg/day, seven days
Protocol: as §2, §3

Compound: CN1C(=S)SC(c2ccccc2)N(C)C1c1ccccc1 (centres unmarked) [Compound of the formula I, 3,5-dimethyl-4,6-diphenyl-tetrahydro-2H-1,3,5-thiadiazine-2-thione]
- Change rate after 24 hours, Chol ([1]; 150 mg/kg p.o.): -6.0%
- Change rate after 24 hours, TG ([1]; 150 mg/kg p.o.): +21.8%
- Lipid reducing activity (in words) ([1]; method A): no lipid reducing activity was observed
- Change rate after 43 hours, Chol ([2]; 150 mg/kg p.o.): -43.5%
- Change rate after 43 hours, TG ([2]; 150 mg/kg p.o.): -65.7%
- Lipid reducing activity (in words) ([2]; method B): distinc lipid reducing activity
- Hepatic insufficiency from GOT and GPT values (in words) (normal rats): No hepatic insufficiency was observed
- Hepatomegaly (in words) (normal rats): no substantial hepatomegaly
- LDL-cholesterol reduction (in words) (normal rats): ramarkably reduces LDL-cholesterol
- Serum lipid, HDL-Chol (normal rats): 29.2 mg/dL
- Serum lipid, TG (normal rats): 37.5 mg/dL
- Serum lipid, Total-Chol (normal rats): 39.2 mg/dL
- Change rate, HDL-Chol (normal rats; vs control): -1.0%
- Change rate, TG (normal rats; vs control): -21.0%
- Change rate, Total-Chol (normal rats; vs control): -16.2%
- Degree of hepatomegaly (normal rats; vs control): +7.0%
- Abnormalities in activity against glutathione related enzymes (in words) [3]: no abnormalities were observed

Source: patent US4624950A, “Method for treating atherosclerosis hyperlipidema, lipid deposition on arterial walls, or raising the ratio of high density lipoprotein cholesterol to total cholesterol in serum” (Nissan Chemical Industries Ltd., priority 1983, dated 1986)
